Reference: PubChem BioAssay AID1963423 (Molecular Pharmacology Branch, DTP, NCI, 2024)

System: 439559-082-T-J2-PDC complex spheroid growth
Assay: Anticancer human tumor 439559-082-T-J2-PDC patient-derived colon adenocarcinoma cell line growth inhibition [Asc]
Conditions: for IC50: curve of first compound; for viability, T/C: stronger effect = lower value
Outline: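 Complex spheroids combining tumor cells with HUVEC endothelial cells and human MSCs, at 37 degrees C, 5% CO2; agents tested alone or combined, half-log dilutions from at or near clinical Cmax, or 10 microM if Cmax unknown.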

[1] = second compound 0.00316 µM, first compound 0.00316 µM
[2] = second compound 0.00316 µM, first compound 0.01 µM
[3] = second compound 0.00316 µM, first compound 0.0316 µM
[4] = second compound 0.00316 µM, first compound 0.1 µM
[5] = second compound 0.00316 µM, first compound 0.316 µM
[6] = second compound 0.00316 µM, first compound 1 µM
[7] = second compound 0.01 µM, first compound 0.00316 µM
[8] = second compound 0.01 µM, first compound 0.01 µM
[9] = second compound 0.01 µM, first compound 0.0316 µM
[10] = second compound 0.01 µM, first compound 0.1 µM
[11] = second compound 0.01 µM, first compound 0.316 µM
[12] = second compound 0.01 µM, first compound 1 µM
[13] = second compound 0.0316 µM, first compound 0.00316 µM
[14] = second compound 0.0316 µM, first compound 0.01 µM
[15] = second compound 0.0316 µM, first compound 0.0316 µM
[16] = second compound 0.0316 µM, first compound 0.1 µM
[17] = second compound 0.0316 µM, first compound 0.316 µM
[18] = second compound 0.0316 µM, first compound 1 µM
[19] = second compound 0.1 µM, first compound 0.00316 µM
[20] = second compound 0.1 µM, first compound 0.01 µM
[21] = second compound 0.1 µM, first compound 0.0316 µM
[22] = second compound 0.1 µM, first compound 0.1 µM
[23] = second compound 0.1 µM, first compound 0.316 µM
[24] = second compound 0.1 µM, first compound 1 µM
[25] = second compound 0.316 µM, first compound 0.00316 µM
[26] = second compound 0.316 µM, first compound 0.01 µM
[27] = second compound 0.316 µM, first compound 0.0316 µM
[28] = second compound 0.316 µM, first compound 0.1 µM
[29] = second compound 0.316 µM, first compound 0.316 µM
[30] = second compound 0.316 µM, first compound 1 µM
[31] = second compound 1 µM, first compound 0.00316 µM
[32] = second compound 1 µM, first compound 0.01 µM
[33] = second compound 1 µM, first compound 0.0316 µM
[34] = second compound 1 µM, first compound 0.1 µM
[35] = second compound 1 µM, first compound 0.316 µM
[36] = second compound 1 µM, first compound 1 µM
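Further: spheroids exposed to agents for 7 days starting day 3 after seeding.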
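Wherever viability, T/C is given: percent of DMSO vehicle control viability with 100% = vehicle.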

SMILES: CCN1CCN(Cc2ccc(Nc3ncc(F)c(-c4cc(F)c5nc(C)n(C(C)C)c5c4)n3)nc2)CC1 + CNC(C)C(=O)NC1CN(S(=O)(=O)c2cccc(S(=O)(=O)N3CCC4CCC(C(=O)NC(c5ccccc5)c5ccccc5)N4C(=O)C(NC(=O)C(C)NC)C3)c2)CCC2CCC(C(=O)NC(c3ccccc3)c3ccccc3)N2C1=O
- IC50 (second compound 0.00316 µM): > 1000 nM
- IC50 (second compound 0.01 µM): > 1000 nM
- IC50 (second compound 0.0316 µM): > 1000 nM
- IC50 (second compound 0.1 µM): > 1000 nM
- IC50 (second compound 0.316 µM): > 1000 nM
- IC50 (second compound 1 µM): > 1000 nM
- viability, T/C [1]: 99.5%
- viability, T/C [2]: 92.6%
- viability, T/C [3]: 91%
- viability, T/C [4]: 94.1%
- viability, T/C [5]: 85.8%
- viability, T/C [6]: 66.9%
- viability, T/C [7]: 107%
- viability, T/C [8]: 101%
- viability, T/C [9]: 87.3%
- viability, T/C [10]: 95.4%
- viability, T/C [11]: 88%
- viability, T/C [12]: 73.1%
- viability, T/C [13]: 95.8%
- viability, T/C [14]: 111%
- viability, T/C [15]: 89.6%
- viability, T/C [16]: 96.8%
- viability, T/C [17]: 94.5%
- viability, T/C [18]: 78.5%
- viability, T/C [19]: 103%
- viability, T/C [20]: 87.9%
- viability, T/C [21]: 99%
- viability, T/C [22]: 94.6%
- viability, T/C [23]: 95.5%
- viability, T/C [24]: 64.2%
- viability, T/C [25]: 91.6%
- viability, T/C [26]: 84.2%
- viability, T/C [27]: 86.8%
- viability, T/C [28]: 75.5%
- viability, T/C [29]: 82%
- viability, T/C [30]: 65.5%
- viability, T/C [31]: 88.9%
- viability, T/C [32]: 77.3%
- viability, T/C [33]: 69.4%
- viability, T/C [34]: 69.2%
- viability, T/C [35]: 62.1%
- viability, T/C [36]: 48.9%

SMILES: NC(=O)C(=Cn1cnc(-c2cc(C(F)(F)F)cc(C(F)(F)F)c2)n1)c1cncnc1 + CNC(C)C(=O)NC1CN(S(=O)(=O)c2cccc(S(=O)(=O)N3CCC4CCC(C(=O)NC(c5ccccc5)c5ccccc5)N4C(=O)C(NC(=O)C(C)NC)C3)c2)CCC2CCC(C(=O)NC(c3ccccc3)c3ccccc3)N2C1=O
- IC50 (second compound 0.00316 µM): > 300 nM
- IC50 (second compound 0.01 µM): > 300 nM
- IC50 (second compound 0.0316 µM): > 300 nM
- IC50 (second compound 0.1 µM): > 300 nM
- IC50 (second compound 0.316 µM): > 300 nM
- IC50 (second compound 1 µM): > 300 nM
- viability, T/C (second compound 0.00316 µM, first compound 0.000949 µM): 105%
- viability, T/C (second compound 0.00316 µM, first compound 0.003 µM): 101%
- viability, T/C (second compound 0.00316 µM, first compound 0.00949 µM): 102%
- viability, T/C (second compound 0.00316 µM, first compound 0.03 µM): 97%
- viability, T/C (second compound 0.00316 µM, first compound 0.0949 µM): 98.2%
- viability, T/C (second compound 0.00316 µM, first compound 0.3 µM): 79.4%
- viability, T/C (second compound 0.01 µM, first compound 0.000949 µM): 101%
- viability, T/C (second compound 0.01 µM, first compound 0.003 µM): 92.3%
- viability, T/C (second compound 0.01 µM, first compound 0.00949 µM): 94.1%
- viability, T/C (second compound 0.01 µM, first compound 0.03 µM): 98.7%
- viability, T/C (second compound 0.01 µM, first compound 0.0949 µM): 102%
- viability, T/C (second compound 0.01 µM, first compound 0.3 µM): 92.4%
- viability, T/C (second compound 0.0316 µM, first compound 0.000949 µM): 94.1%
- viability, T/C (second compound 0.0316 µM, first compound 0.003 µM): 87.3%
- viability, T/C (second compound 0.0316 µM, first compound 0.00949 µM): 100%
- viability, T/C (second compound 0.0316 µM, first compound 0.03 µM): 99.7%
- viability, T/C (second compound 0.0316 µM, first compound 0.0949 µM): 108%
- viability, T/C (second compound 0.0316 µM, first compound 0.3 µM): 84.8%
- viability, T/C (second compound 0.1 µM, first compound 0.000949 µM): 96.3%
- viability, T/C (second compound 0.1 µM, first compound 0.003 µM): 103%
- viability, T/C (second compound 0.1 µM, first compound 0.00949 µM): 94.9%
- viability, T/C (second compound 0.1 µM, first compound 0.03 µM): 99.3%
- viability, T/C (second compound 0.1 µM, first compound 0.0949 µM): 101%
- viability, T/C (second compound 0.1 µM, first compound 0.3 µM): 87.2%
- viability, T/C (second compound 0.316 µM, first compound 0.000949 µM): 100%
- viability, T/C (second compound 0.316 µM, first compound 0.003 µM): 99.2%
- viability, T/C (second compound 0.316 µM, first compound 0.00949 µM): 87.2%
- viability, T/C (second compound 0.316 µM, first compound 0.03 µM): 86.2%
- viability, T/C (second compound 0.316 µM, first compound 0.0949 µM): 97%
- viability, T/C (second compound 0.316 µM, first compound 0.3 µM): 82.8%
- viability, T/C (second compound 1 µM, first compound 0.000949 µM): 79.1%
- viability, T/C (second compound 1 µM, first compound 0.003 µM): 80%
- viability, T/C (second compound 1 µM, first compound 0.00949 µM): 86.8%
- viability, T/C (second compound 1 µM, first compound 0.03 µM): 71.4%
- viability, T/C (second compound 1 µM, first compound 0.0949 µM): 88.7%
- viability, T/C (second compound 1 µM, first compound 0.3 µM): 74.2%

SMILES: O=C(c1ccc(F)c(F)c1Nc1ccc(I)cc1F)N1CC(O)([C@@H]2CCCCN2)C1 + CNC(C)C(=O)NC1CN(S(=O)(=O)c2cccc(S(=O)(=O)N3CCC4CCC(C(=O)NC(c5ccccc5)c5ccccc5)N4C(=O)C(NC(=O)C(C)NC)C3)c2)CCC2CCC(C(=O)NC(c3ccccc3)c3ccccc3)N2C1=O
- IC50 (second compound 0.00316 µM): 262 nM
- IC50 (second compound 0.01 µM): 248 nM
- IC50 (second compound 0.0316 µM): 253 nM
- IC50 (second compound 0.1 µM): 228 nM
- IC50 (second compound 0.316 µM): 141 nM
- IC50 (second compound 1 µM): 124 nM
- viability, T/C [1]: 96.6%
- viability, T/C [2]: 77.4%
- viability, T/C [3]: 76.8%
- viability, T/C [4]: 67.9%
- viability, T/C [5]: 48.6%
- viability, T/C [6]: 16.2%
- viability, T/C [7]: 99.5%
- viability, T/C [8]: 107%
- viability, T/C [9]: 87.7%
- viability, T/C [10]: 61.9%
- viability, T/C [11]: 51%
- viability, T/C [12]: 25.6%
- viability, T/C [13]: 108%
- viability, T/C [14]: 95.6%
- viability, T/C [15]: 89.5%
- viability, T/C [16]: 63.5%
- viability, T/C [17]: 47.6%
- viability, T/C [18]: 27.1%
- viability, T/C [19]: 86.8%
- viability, T/C [20]: 98.3%
- viability, T/C [21]: 86.7%
- viability, T/C [22]: 61.6%
- viability, T/C [23]: 46.7%
- viability, T/C [24]: 17%
- viability, T/C [25]: 89.8%
- viability, T/C [26]: 101%
- viability, T/C [27]: 69.8%
- viability, T/C [28]: 51.4%
- viability, T/C [29]: 46.8%
- viability, T/C [30]: 25%
- viability, T/C [31]: 72.2%
- viability, T/C [32]: 68%
- viability, T/C [33]: 68.2%
- viability, T/C [34]: 48.4%
- viability, T/C [35]: 39%
- viability, T/C [36]: 15.5%
